Patent US9198923B2, “Phosphate management with small molecules” (OPKO IRELAND GLOBAL HOLDINGS, LTD., priority 2009, dated 2015)

What was measured:
[1] = system: Male Sprague Dawley rats; assay: Maximum tolerated dose (MTD) in male Sprague Dawley rats; format: in vivo, rat; conditions: oral, daily, 0.5, 5 and 10 mg per kg for twelve days; for effect on weight gain: FIG. 5
Protocol: Male Sprague Dawley rats were given C-002, C-004, C-012, C-021, C-022, C-023, and C-028 orally and daily at doses of 0.5, 5 and 10 mg per kg for twelve days. The mortality and animal weight data were recorded.

[2] = system: phosphate uptake in Caco-2 human intestinal epithelial cells; assay: Dosage effect on phosphate uptake inhibition in Caco-2 cells; format: cell-based; conditions: concentrations from 1 to 100 μM, FIG. 2
Protocol: Caco-2 cells were cultured in DMEM medium containing 20% Fetal Bovine Serum. Medium from the sub-confluent monolayer of Caco-2 cells was removed. The resulting cells were washed with either a sodium free buffer (137 mM choline chloride, 5.4 mM KCl, 2.8 mM CaCl2, 1.2 mM MgSO4, and 14 mM Tris-HCl at pH 7.4), or with a buffer that contained sodium (137 mM sodium chloride, 5.4 mM KCl, 2.8 mM CaCl2, 1.2 mM MgSO4, and 14 mM Tris-HCl at pH 7.4). After the wash, sodium or sodium free buffer comprising 1 μM of radiolabeled phosphate (K2H^32PO4,1 μCi/mL) and 100 μM of a small molecule having a phosphate group that was selected from the group containing Compounds 001-029 was added to the cells and they were incubated for 20 min at 37° C. Phosphate uptake was terminated by removing the uptake media and washing the cells with an ice-cold solution of 14 mM Tris-HCl, pH 7.4 that contained 137 mM of either choline chloride or sodium chloride. The monolayers of the cells were solubilized by the addition of a 1% solution of Triton X-100 to extract the radiolabeled phosphate. Aliquots of the radiolabeled phosphate were added to scintillation fluid and the radioactivity was determined by liquid scintillation counting. The difference between the assays using the two solutions with or without sodium represents the sodium dependent transport of phosphate.
The procedure of example 1 was repeated using C-002, C-004, C-012, and C-028 at concentrations from 1 to 100 μM. The results were recorded as the percent of phosphate uptake inhibition versus concentration of the small molecule having a phosphate group.

[3] = system: Caco-2 human epithelial cells; assay: Caco-2 cell viability by trypan blue exclusion; format: cell-based; conditions: 100 μM compound, one hour of incubation, sodium or sodium free buffer; FIG. 4
Protocol: Trypan blue exclusion was used to determine the effect of C-002, 004, 012, and 028 on cell viability. The cells were plated in the same way as the ALAMAR BLUE stain test (see above). On the day of the test, media was removed, cells were washed with PBS and incubated with 100 μM (final concentration) of C-002, C-004, C-012 and C-028 in either a sodium free buffer (137 mM choline chloride, 5.4 mM KCl, 2.8 mM CaCl2, 1.2 mM MgSO4, and 14 mM Tris-HCl at pH 7.4), or with a buffer that contained sodium (137 mM sodium chloride, 5.4 mM KCl, 2.8 mM CaCl2, 1.2 mM MgSO4, and 14 mM Tris-HCl at pH 7.4). Testing was performed in duplicate. After 1 hour of incubation the cells were detached with trypsin/EDTA, transferred to an Eppendorf tube, and their viability was counted using 0.4% trypan blue stain (Invitrogen, Cat.#15250-061) in a 1:4 dilution with confocal microscopy.

[4] = system: Caco-2 human epithelial cells; assay: Caco-2 cell viability by ALAMAR BLUE stain reduction; format: cell-based; conditions: 100 μM compound, Caco-2 cells; FIG. 3; taken as nontoxic
Protocol: Staining was performed with ALAMAR BLUE stain in the presence of 100 μM C-002, C-004, C-012, and C-028 cells to exclude compound toxicity in the phosphorus transport assay. Caco-2 cells were plated into a 96-well plate in concentrations which gave about 16,000 cells/well on the day of the test (e.g., 8000 cells/well for a 1 day growth, 4000 cells/well for a 2 day growth, 2000 cell/well for a 3 day growth). On the day of the test, old media was replaced by 80 μL of fresh media per well with either a 100 μM final concentration of the small molecule having a phosphate group in DMSO, or with 1% of DMSO in the control wells. Testing was performed in duplicate. ALAMAR BLUE stain (BioSource International, Inc., Cat#DAL1100) was added at a final concentration of 10% into each well according to manufacturer instructions. The cells were then incubated at 37° C. for another 18 or 24 hours, and the reduction of ALAMAR BLUE stain by vital cells was measured spectrophotometrically at 570 nm and 600 nm. The results were calculated as the percent of reduction using the formula in the manufacturer's manual (TREK Diagnostic Systems, PI-DIAL 1025/1100 Rev 1.0).

| SMILES | mortality [1] | effect on weight gain [1] | percent inhibition of phosphate uptake versus concentration [2] | viability of Caco-2 cells by trypan blue exclusion [3] | percent difference in ALAMAR BLUE stain reduction after 18 and 24 hours [4] |
| --- | --- | --- | --- | --- | --- |
| O=P(O)(O)c1c(Cl)c(Cl)nc(Cl)c1Cl [C-002] | No death | no significant effect | increased with the concentration | no significant effect | virtually unchanged |
| C=C(c1ccccc1)P(=O)(O)O [C-004] | No death | no significant effect | increased with the concentration | no significant effect | virtually unchanged |
| Cc1csc(Nc2ccc([N+](=O)[O-])cc2)[n+]1CCC(O)(P(=O)(O)O)P(=O)(O)O [C-012] | No death | no significant effect | increased with the concentration | no significant effect | virtually unchanged |
| O=P(O)(O)c1ccccc1OCCCl [C-021] | No death | no significant effect | – | – | – |
| O=P(O)(O)c1ccccc1OCCCOc1ccccc1P(=O)(O)O [C-022] | No death | no significant effect | – | – | – |
| O=P(O)(O)/C=C/c1ccccc1 [C-023] | No death | no significant effect | – | – | – |
| O=P(O)(OC(c1ccccc1)C(F)(F)C(F)(F)C(F)(F)F)c1ccccc1 (centres unmarked) [C-028] | No death | no significant effect | increased with the concentration | no significant effect | virtually unchanged |
